This note sets out measurements from US9492450B2, “Inhibition of dynamin related protein 1 to promote cell death” (University of Pittsburgh—of the Commonwealth System of …, priority 2011, dated 2016).

The structures appear in SMILES notation.

What all share (assay type): cell-based, human
For test [1], the system named is MDA-MB-231 cells. The test can be described thus: CyQUANT cell number after 2 h exposure and wash-out. To be noted: 50 μM, 2 h exposure then wash-out. Here is the method:
FIG. 19A-E. Combination of cisplatin and mdivi-1 produces synergistic pro-apoptotic effect in multidrug resistant tumor cells. (A) MDA-MB-231 cells were treated with increasing doses of mdivi-1 for 72 h. The survival was assessed by MTS assay. […] (B) MDA-MB-231 cells were treated with increasing doses of cisplatin alone or the combination with 20 μM or 50 μM of mdivi-1 for 72 h. The survival was assessed by MTS assay. (C) MDA-MB-231 cells were exposed to cisplatin and mdivi-1 alone or combination at their IC50 or 0.5 fold of their IC50. The combination index (CI) and the normalized isobologram were generated using CompuSyn. (D) MDA-MB-231 cells were treated with DMSO, 50 μM cisplatin alone, 50 μM mdivi-1 alone, or the combination for 2 h. The compounds were then washed out and the cell number was determined every 24 h by CyQuant assay. (E) MDA-MB-231 cells were treated with agents alone, or the combination at a ratio of 1:1 for 20 h. The number of apoptotic cells was determined with antibody recognizing cleaved caspase-3 followed by flow cytometry.
To explore this effect further, MDA-MB-231 cells were treated with DMSO as a vehicle control, 50 μM of cisplatin, 50 μM of mdivi-1, or 50 μM of cisplatin plus 50 μM of mdivi-1 for 2 hours. The cells were then washed with growth media and plated in black 96-well plates. Survivals were measured by CyQUANT assay. Data represent mean±SD. n=4 wells. […]

The subject of test [2] is MDA-MB-231 cells. The test can be described thus: Cell cycle analysis by anti-BrdU, anti-phospho-Histone H3 and PI staining. The settings on record: 20 μM, 20 h. The protocol:
(§1) FIG. 22A-E. Mdivi-1 inhibits DNA replication and its combination with cisplatin enhances replication stress leading to efficient G2 phase arrest of the cell cycle. (A) MDA-MB-231 cells were treated with cisplatin alone, mdivi-1 alone or the combination at the indicated concentrations for 4 h. Western blot was then performed to detect the phosphorylation status of key proteins involved in DNA damage response. (B) MDA-MB-231 cells were treated with 20 μM cisplatin alone, 20 μM mdivi-1 alone or the combination for 20 h. The distribution of cell cycle was determined by triple staining of the cells with anti-BrdU, anti-phospho-Histone H3 and PI. (C) Quantification of the distribution of cell cycle analyzed in panel B. (D) The effect of mdivi-1 on the rate of DNA synthesis was analyzed by a histogram, which was generated from the data obtained in panel B, showing the changes of BrdU intensity. (E) Cells were treated as described in B and γ-H2AX was analyzed by western blot.
Cells were treated with 20 μM cisplatin, 20 μM mdivi-1, or the combination of 20 μM cisplatin and 20 μM mdivi-1 for 20 h. S phase cells were then pulse-labeled with 10 μM BrdU for 30 min at 37° C. Cells were trypsinized, fixed in 70% ice-cold ethanol, and incubated overnight at 4° C. DNA was denatured in 2 N HCl containing 0.5% Triton X-100, and neutralized with 0.1 M Na2B4O7. Cells were then stained with FITC-labeled anti-BrdU antibody (BD Biosciences, San Jose, Calif.). To determine the number of cells in mitosis, cells were then stained with Alexa Fluor 647-conjugated phospho-Histone H3 (Ser 10) antibody (Cell signaling technology). To measure DNA content, cells were incubated in PI solution (PBS containing 50 μg/ml of PI and 40 μg/ml of RNase A) for 30 min at room temperature. Samples were analyzed on a CyAn ADP Analyzer (Beckman Coulter, Brea, Calif.). Data were analyzed using Summit software.

The subject of test [3] is MDA-MB-231 cells. As to the kind of experiment: Western blot of DNA damage response proteins. The settings on record: 4 h; mdivi-1 alone at 50 μM. The protocol:
as §1
Whole cell lysate was prepared by lysing cells in cell lysis buffer (Cell signaling technology) containing complete protease inhibitor (Roche). Cell lysates were then cleared at 15,000 rpm for 15 min at 4° C. […] The protein content was quantified using a Bio-Rad Protein Assay kit (Bio-Rad Laboratories, Hercules, Calif.). […]

Take `COc1cc(-n2c(=S)[nH]c3ccccc3c2=O)c(Cl)cc1Cl` [mdivi-1]: in the test on MDA-MB-231 cells [1], the “effect on cell growth / survival after short exposure” value is “reversible”. Also, in the test on MDA-MB-231 cells [2], the “BrdU incorporation into DNA” value is “substantially decreased” and the S phase cells came out at 44.23%. Besides, in the test with MDA-MB-231 cells [3], the “phosphorylation / activation of Chk1” value is on record as “induced activation of Chk1”.

Take `N.N.[Cl][Pt][Cl]` [cisplatin]: the “effect on cell growth / survival after short exposure” value with MDA-MB-231 cells [1] is listed as “only slightly slowed down cell growth”. Moreover, in the test with MDA-MB-231 cells [2], the “BrdU incorporation into DNA” value is given as “abolished the uptake of BrdU” and the G2 phase cells was 18.97%. Moreover, in the test with MDA-MB-231 cells [3], the “phosphorylation / activation of Chk1” value is on record as “phosphorylated”.
